biological target: T1, CYP4A (Homo sapiens, UniProt Q02928); assay: CYP4A enzyme assay (luminescence, Luciferin-ME); format: biochemical; settings: Compound concentration 5 μM; 50%-70%; read-out: % Inhibition 50%-70%
T1 construct: purchased; host or cells: bacterial membranes ('bactosome')
T1 sequence (Q02928 5-519): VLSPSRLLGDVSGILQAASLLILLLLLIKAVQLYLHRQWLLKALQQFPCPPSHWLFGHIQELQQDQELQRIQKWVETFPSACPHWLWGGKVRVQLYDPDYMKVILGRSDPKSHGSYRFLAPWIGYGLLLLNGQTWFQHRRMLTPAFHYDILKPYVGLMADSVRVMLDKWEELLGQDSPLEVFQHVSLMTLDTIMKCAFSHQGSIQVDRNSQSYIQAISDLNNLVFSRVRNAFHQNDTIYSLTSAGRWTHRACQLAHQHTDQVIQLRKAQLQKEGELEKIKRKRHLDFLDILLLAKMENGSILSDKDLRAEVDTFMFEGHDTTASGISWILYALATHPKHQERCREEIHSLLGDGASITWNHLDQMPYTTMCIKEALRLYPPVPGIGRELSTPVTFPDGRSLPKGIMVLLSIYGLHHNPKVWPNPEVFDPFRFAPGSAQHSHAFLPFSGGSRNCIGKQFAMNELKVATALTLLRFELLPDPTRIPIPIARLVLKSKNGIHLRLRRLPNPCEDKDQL
How it was run: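 Compounds (5 μM) were preincubated 15 min at room temperature with CYP4A bactosomes in 100 mM KPO4, 0.1% BSA, 1 mM DTT. Reaction ran 30 min at room temperature after adding 5 mM Luciferin-ME and NADPH regeneration system. Luminescence after 15 min with detection reagent; inhibition judged by comparing well signals.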

inhibition at 5 µM [%] | Structure (SMILES)
50 to 70 | O=C(C1CCCN(C(=O)C2CCCCC2)C1)N1CCN(c2ccnc3cc(F)ccc23)CC1 (stereo not drawn) [Example 108, (1-(cyclohexylcarbonyl)piperidin-3-yl)(4-(7-fluoroquinolin-4-yl)piperazin-1-yl)methanone]
50 to 70 | COC(=O)CCS(=O)(=O)N1CCCC(C(=O)N2CCN(c3ccnc4cc(F)ccc34)CC2)C1 (stereo not drawn) [Example 130, methyl 3-((3-(4-(7-fluoroquinolin-4-yl)piperazine-1-carbonyl)piperidin-1-yl)sulfonyl)propanoate]

More lines, now with the values behind:

Structure (SMILES) | inhibition at 5 µM [%]
COc1ccc(C(=O)N2CCCC(C(=O)N3CCN(c4cc(C(F)(F)F)nc5ccccc45)CC3)C2)cc1 (stereo not drawn) [Example 99, (1-(4-methoxybenzoyl)piperidin-3-yl)(4-(2-(trifluoromethyl)quinolin-4-yl)piperazin-1-yl)methanone] | 50 to 70
O=C(C1CCCN(S(=O)(=O)c2cccnc2)C1)N1CCN(c2cc(C(F)(F)F)nc3ccccc23)CC1 (stereo not drawn) [Example 129, (1-(pyridin-3-ylsulfonyl)piperidin-3-yl)(4-(2-(trifluoromethyl)quinolin-4-yl)piperazin-1-yl)methanone] | 50 to 70
Cc1cc(N2CCN(C(=O)C3CCCN(S(=O)(=O)c4ccncc4)C3)CC2)c2ccccc2n1 (stereo not drawn) [Example 126, (4-(2-methylquinolin-4-yl)piperazin-1-yl)(1-(pyridin-4-ylsulfonyl)piperidin-3-yl)methanone] | 50 to 70
Cc1nc(N2CCN(C(=O)C3CCCN(S(=O)(=O)c4ccc(N(C)C)cc4)C3)CC2)c2ccccc2n1 (stereo not drawn) [Example 82, (1-(4-(dimethylamino)phenylsulfonyl)piperidin-3-yl)(4-(2-methylquinazolin-4-yl)piperazin-1-yl)methanone] | 50 to 70
O=C(c1ccc(F)cc1)N1CCCC(C(=O)N2CCN(c3cc(C(F)(F)F)nc4ccccc34)CC2)C1 (stereo not drawn) [Example 96, (1-(4-fluorobenzoyl)piperidin-3-yl)(4-(2-(trifluoromethyl)quinolin-4-yl)piperazin-1-yl)methanone] | 50 to 70
Cc1cc(N2CCN(C(=O)C3CCCN(S(=O)(=O)c4cccs4)C3)CC2)c2ccccc2n1 (stereo not drawn) [Example 127, (4-(2-methylquinolin-4-yl)piperazin-1-yl)(1-(thiophen-2-ylsulfonyl)piperidin-3-yl)methanone] | 50 to 70

same assay, conditions: Compound concentration 5 μM; 70%-90%; read-out: % Inhibition 70%-90%

inhibition at 5 µM [%] | Structure (SMILES)
70 to 90 | COc1ccc2c(N3CCN(C(=O)C4CCCN(C(=O)c5ccncc5)C4)CC3)ccnc2c1 (stereo not drawn) [Example 93, (4-(7-methoxyquinolin-4-yl)piperazin-1-yl)(1-(pyridine-4-ylcarbonyl)piperidin-3-yl)methanone]
70 to 90 | CC(C)n1cnc(S(=O)(=O)N2CC[C@H](C(=O)N3CCN(c4ccnc5cc(F)ccc45)CC3)C2)n1 [Example 141]
70 to 90 | O=C(c1ccccc1)N1CCCC(C(=O)N2CCN(c3ccnc4cc(F)ccc34)CC2)C1 (stereo not drawn) [Example 107, (1-benzoylpiperidin-3-yl)(4-(7-fluoroquinolin-4-yl)piperazin-1-yl)methanone]
70 to 90 | O=C(C1CCCN(S(=O)(=O)C2CCCCC2)C1)N1CCN(c2ccnc3cc(F)ccc23)CC1 (stereo not drawn) [Example 117, (1-(cyclohexylsulfonyl)piperidin-3-yl)(4-(7-fluoroquinolin-4-yl)piperazin-1-yl)methanone]
70 to 90 | O=C(c1ccc(F)cc1)N1CCCC(C(=O)N2CCN(c3ccnc4ccccc34)CC2)C1 (stereo not drawn) [Example 112, (1-(4-fluorophenylcarbonyl)piperidin-3-yl)(4-(quinolin-4-yl)piperazin-1-yl)methanone]

Further lines, the compound ahead of its results:

Structure (SMILES) | inhibition at 5 µM [%]
O=C(C1CCCN(S(=O)(=O)c2ccc(F)cc2)C1)N1CCN(c2ncnc3ccccc23)CC1 (stereo not drawn) [Example 76, (1-((4-fluorophenyl)sulfonyl)piperidin-3-yl)(4-(quinazolin-4-yl)piperazin-1-yl)methanone] | 70 to 90
Nc1cccc(S(=O)(=O)N2CC(C(=O)N3CCN(c4ccnc5cc(F)ccc45)CC3)C2)c1 [Example 72, (1-((3-aminophenyl)sulfonyl)azetidin-3-yl)(4-(7-fluoroquinolin-4-yl)piperazin-1-yl)methanone] | 70 to 90

same assay, conditions: Compound concentration 5 μM; Greater than 90%; read-out: % Inhibition Greater than 90%

inhibition at 5 µM [%] | Structure (SMILES)
> 90 | O=C([C@@H]1CCN(S(=O)(=O)c2ncn[nH]2)C1)N1CCN(c2ccnc3cc(F)ccc23)CC1 [Example 134, (R)-(1-((1H-1,2,4-triazol-5-yl)sulfonyl)pyrrolidin-3-yl)(4-(7-fluoroquinolin-4-yl)piperazin-1-yl)methanone]
> 90 | CC(=O)Nc1cccc(S(=O)(=O)N2CCC(C(=O)N3CCN(c4ccnc5cc(F)ccc45)CC3)C2)c1 (stereo not drawn) [Example 9, N-(3-((3-(4-(7-fluoroquinolin-4-yl)piperazine-1-carbonyl)pyrrolidin-1-yl)sulfonyl)phenyl)acetamide]
> 90 | O=C([C@H]1CCN(S(=O)(=O)c2cccnc2)C1)N1CCN(c2ccnc3cc(F)ccc23)CC1 [Example 156, (S)-(4-(7-fluoroquinolin-4-yl)piperazin-1-yl)(1-(pyridin-3-ylsulfonyl)pyrrolidin-3-yl)methanone]

Continued, compound first:

Structure (SMILES) | inhibition at 5 µM [%]
CC(=O)Nc1cccc(S(=O)(=O)N2CCC(C(=O)N3CCN(c4ccnc5cc(F)ccc45)CC3)CC2)c1 [Example 55, N-(3-((4-(4-(7-fluoroquinolin-4-yl)piperazine-1-carbonyl)piperidin-1-yl)sulfonyl)phenyl)acetamide] | > 90
Cn1ccnc1S(=O)(=O)N1CCCC(C(=O)N2CCN(c3ccnc4ccccc34)CC2)C1 (stereo not drawn) [Example 120, (1-(1-methyl-1H-imidazol-2-ylsulfonyl)piperidin-3-yl)(4-(quinolin-4-yl)piperazin-1-yl)methanone] | > 90
O=C(C1CCN(S(=O)(=O)c2ccc(-c3cccc(O)c3)nc2)C1)N1CCN(c2ccnc3ccccc23)CC1 (stereo not drawn) [Example 27, (1-((6-(3-hydroxyphenyl)pyridin-3-yl)sulfonyl)pyrrolidin-3-yl)(4-(quinolin-4-yl)piperazin-1-yl)methanone] | > 90
O=C(C1CCN(S(=O)(=O)c2ccc([N+](=O)[O-])cc2)CC1)N1CCN(c2ccnc3cc(F)ccc23)CC1 [Example 54, (4-(7-fluoroquinolin-4-yl)piperazin-1-yl)(1-((4-nitrophenyl)sulfonyl)piperidin-4-yl)methanone] | > 90
Cc1noc(C)c1S(=O)(=O)N1CCC(C(=O)N2CCN(c3ccnc4ccccc34)CC2)C1 (stereo not drawn) [Example 39, (1-((3,5-dimethylisoxazol-4-yl)sulfonyl)pyrrolidin-3-yl)(4-(quinolin-4-yl)piperazin-1-yl)methanone] | > 90
CC(=O)Nc1ccc(S(=O)(=O)N2CC[C@H](C(=O)N3CCN(c4ccnc5ccccc45)CC3)C2)cc1 [Example 23, (S)—N-(4-((3-(4-(quinolin-4-yl)piperazine-1-carbonyl)pyrrolidin-1-yl)sulfonyl)phenyl)acetamide] | > 90
O=C([C@H]1CCN(S(=O)(=O)c2ncn[nH]2)C1)N1CCN(c2ccnc3ccc(F)cc23)CC1 [Example 136, (S)-(1-((1H-1,2,4-triazol-5-yl)sulfonyl)pyrrolidin-3-yl)(4-(6-fluoroquinolin-4-yl)piperazin-1-yl)methanone] | > 90
O=C(C1CCN(S(=O)(=O)c2ccc(-c3ccncc3)cc2)CC1)N1CCN(c2ccnc3ccccc23)CC1 [Example 64, (1-((4-(pyridin-4-yl)phenyl)sulfonyl)piperidin-4-yl)(4-(quinolin-4-yl)piperazin-1-yl)methanone] | > 90
O=C(C1CCN(S(=O)(=O)c2ccc(-c3ccc(O)cc3)nc2)C1)N1CCN(c2ccnc3ccccc23)CC1 (stereo not drawn) [Example 28, (1-((6-(4-hydroxyphenyl)pyridin-3-yl)sulfonyl)pyrrolidin-3-yl)(4-(quinolin-4-yl)piperazin-1-yl)methanone] | > 90

— US12612384B2, “Heterocyclic CYP4A inhibitor compounds and compositions thereof” (MBD CO., LTD., priority 2021, dated 2026)
